Results on 28 compounds are retold here after patent US8426447B2, “Spiro-tricyclic ring compounds as beta-secretase modulators and methods of use” (Amgen Inc., priority 2008, dated 2013).

The structures appear in SMILES notation.

Assay [1] addresses T1, BACE1 (Homo sapiens, UniProt P56817). The assay is described as follows: In Vitro BACE Cell-based Assay (HEK cell assay): Aβ40 in conditioned medium of cells stably expressing Amyloid Precursor Protein, sandwich ELISA. In short, it runs like this:
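HEK cells stably expressing APP were treated 24 h with compound in 10-point dose response starting at 100 or 10 μM (0.1% DMSO). Secreted Aβ40 quantified by sandwich ELISA (pAb40 capture, biotinylated 6E10 detection, europium time-resolved fluorescence), with IC50 derived from percent inhibition versus concentration.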
A general note: In an ELISA, binding on a coated surface is turned into a signal by an enzyme label.

Assay [2] relates to amyloid beta peptide (A-beta) in cerebrospinal fluid and brain. The assay can be described thus: In Vivo Inhibition of Beta-Secretase: reduction of A-beta levels in CSF and brain. Particulars: after 4 hrs, mouse or rat.
Description: Several animal models, including mouse, rat, dog, and monkey, may be used to screen for inhibition of beta-secretase activity in vivo following administration of a test compound sample. Animals used in this invention can be wild type, transgenic, or gene knockout animals. […] A separate group of animals receive 2% hydroxypropyl methylcellulose, 1% Tween80 alone, containing no test compound, and serve as a vehicle-control group. At the end of the test period, animals are sacrificed and brain tissues, plasma or cerebrospinal fluid are collected. […] Homogenates are centrifuged at 355,000 g, 4° C. for 30 minutes. CSF or brain supernatants are then analyzed for the presence of A-beta peptide by specific sandwich ELISA assays based on ECL (Electrochemiluminescence) technology. For example, rat Abeta40 is measured using biotinylated-4G8 (Signet) as a capture antibody and Fab40 (an in-house antibody specific to the C-terminal of Abeta40) as a detection antibody.
Assay [3] has as its target T1, BACE1. The assay is described as follows: In Vitro Enzymatic BACE FRET (Fluorescence Resonance Energy Transfer) Assay. The format is biochemical. A digest of the protocol:
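Buffer: 0.05 M acetate, pH 4.2, 10% DMSO final, 100 uM genapol. Start: FRET substrate 50 nM. Incubation 1 h. Stop: Tris to neutral pH. Read: fluorescence.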

[4] abbreviates: HEK cells, read-out: HEK cell assay.
Setting [5] is: Table IV, class symbols, read-out: HEK cell assay.
Setting [6] is: Table IV, class symbols, read-out: BACE1 FRET assay.
[7] abbreviates: HEK cell-based assay, Aβ40 in conditioned medium, IC50 class symbols, read-out: HEK cell assay.
Where [8] appears, read: in vitro BACE FRET enzyme assay, IC50 class symbols, read-out: BACE1 FRET assay.
[9] abbreviates: Table 1, Aβ40, 24 h incubation, read-out: HEK cell assay.
The mark [10] stands for this setting: Table 1, read-out: BACE1 FRET assay.
Where [11] appears, read: Table III, IC50's in uM ranges, read-out: HEK cell assay.
Where [12] appears, read: Table III, IC50's in uM ranges, read-out: BACE1 FRET assay.

T1 sequence (P56817 46-501, species assumed): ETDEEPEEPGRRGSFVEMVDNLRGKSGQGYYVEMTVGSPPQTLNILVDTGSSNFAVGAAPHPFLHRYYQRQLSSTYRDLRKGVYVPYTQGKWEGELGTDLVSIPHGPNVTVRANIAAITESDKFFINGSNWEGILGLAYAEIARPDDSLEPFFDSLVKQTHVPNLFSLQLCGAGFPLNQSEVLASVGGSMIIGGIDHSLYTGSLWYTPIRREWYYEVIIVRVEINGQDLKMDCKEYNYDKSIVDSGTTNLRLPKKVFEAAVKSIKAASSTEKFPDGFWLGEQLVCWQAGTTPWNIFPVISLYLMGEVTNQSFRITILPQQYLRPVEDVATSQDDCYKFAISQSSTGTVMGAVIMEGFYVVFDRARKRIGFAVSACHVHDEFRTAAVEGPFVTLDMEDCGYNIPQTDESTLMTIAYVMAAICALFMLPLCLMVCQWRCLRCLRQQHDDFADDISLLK

Turning to `NC1=N[C@]2(CO1)c1cc(C#CC3(O)CCC3)ccc1Oc1ccc(-c3cncnc3)cc12` [Example 956, 1-(((4R)-2-amino-7′-(5-pyrimidinyl)spiro[1,3-oxazole-4,9′-xanthen]-2′-yl)ethynyl)cyclobutanol], the IC50 at BACE1 [1] (read-out: HEK cell assay) is < 0.1 µM. In assay [2] (30 mpk), the “percent reduction in CSF A-beta levels” value was found to be 25% and the “percent reduction in brain A-beta levels” value worked out at 8%. Moreover, at BACE1 [3] (read-out: BACE1 FRET assay), the IC50 is < 0.1 µM.

With `CC(C)(C)/C=C/c1cc2c(cn1)Oc1ccc(-c3cncnc3)cc1[C@@]21COC(N)=N1` [Example 291, (S,E)-3-(3,3-dimethylbut-1-enyl)-7-(pyrimidin-5-yl)-5′H-spiro[chromeno[2,3-c]pyridine-5,4′-oxazol]-2′-amine], the IC50 on BACE1 [1] (setting [4]) is < 0.1 µM. In assay [2] (10 mpk), the “percent reduction in CSF A-beta levels” value stood at 62% and the “percent reduction in brain A-beta levels” value is reported as 32%. Further, the IC50 at BACE1 [3] (read-out: BACE1 FRET assay) was < 0.1 µM.

For the compound `CC1(C)CN(c2cc3c(cn2)Oc2ccc(-c4cccnc4)cc2[C@@]32COC(N)=N2)CCO1` [Example 490, (5S)-3-(2,2-dimethyl-4-morpholinyl)-7-(3-pyridinyl)spiro[chromeno[2,3-c]pyridine-5,4′-[1,3]oxazol]-2′-amine], at BACE1 [1] (setting [4]), the IC50 was < 0.1 µM. In addition, in assay [2] (10 mpk), the “percent reduction in CSF A-beta levels” value is given as 28% and the “percent reduction in brain A-beta levels” value was 9%. For the same compound, on BACE1 [3] (read-out: BACE1 FRET assay), the IC50 is < 0.1 µM.

For the compound `NC1=N[C@@]2(CO1)c1cc(-c3ccccc3)ccc1Oc1cnc(C3=CCOCC3)cc12` [Example 545, (5S)-3-(3,6-dihydro-2H-pyran-4-yl)-7-phenylspiro[chromeno[2,3-c]pyridine-5,4′-[1,3]oxazol]-2′-amine], the IC50 on BACE1 [1] (setting [5]) and on BACE1 [3] (setting [6]) was < 0.1 µM each time. Moreover, the “percent reduction in CSF A-beta levels” value in assay [2] (30 mpk) is reported as 73%. Besides, in assay [2] (30 mpk), the “percent reduction in brain A-beta levels” value is recorded as 58%.

Regarding `NC1=N[C@@]2(CO1)c1cc(-c3cncnc3)ccc1Oc1cc(F)c(C3=CCOCC3)cc12` [Example 292, (S)-2′-(3,6-dihydro-2H-pyran-4-yl)-3′-fluoro-7′-(pyrimidin-5-yl)-5H-spiro[oxazole-4,9′-xanthen]-2-amine], the IC50 on BACE1 [1] (setting [5]) is < 0.1 µM. Besides, in assay [2] (10 mpk), the “percent reduction in CSF A-beta levels” value is listed as 57% and the “percent reduction in brain A-beta levels” value was 29%. Moreover, the IC50 at BACE1 [3] (setting [6]) was < 0.1 µM.

For `COC(C)(C)C#Cc1cnc2c(c1)[C@]1(COC(N)=N1)c1cc(-c3cnccn3)ccc1O2` [Example 586, (5S)-3-(3-methoxy-3-methyl-1-butyn-1-yl)-7-(2-pyrazinyl)spiro[chromeno[2,3-b]pyridine-5,4′-[1,3]oxazol]-2′-amine], at BACE1 [1] (setting [5]), the IC50 was < 0.1 µM. Further, in assay [2] (10 mpk), the “percent reduction in CSF A-beta levels” value came to 32% and the “percent reduction in brain A-beta levels” value was 11%. Besides, the IC50 on BACE1 [3] (setting [6]) was < 0.1 µM.

Consider `NC1=N[C@]2(CO1)c1cc(OCC(F)(F)F)ccc1Oc1ccc(-c3cncnc3)cc12` [Example 58, (4S)-2′-(5-pyrimidinyl)-7′-(2,2,2-trifluoroethoxy)spiro[1,3-oxazole-4,9′-xanthen]-2-amine], for which the IC50 at BACE1 [1] (Table II, Aβ40, 24 h incubation, read-out: HEK cell assay) lay in the range of 0.1 to 1 µM. Also, in assay [2] (10 mpk), the “percent reduction in CSF A-beta levels” value is given as 45% and the “percent reduction in brain A-beta levels” value is 29%. For the same compound, at BACE1 [3] (Table II, read-out: BACE1 FRET assay), the IC50 was < 0.1 µM.

`COC(C)(C)C#Cc1cc(F)c2c(c1)[C@]1(COC(N)=N1)c1cc(-c3cncnc3)ccc1O2` [Example 673, (4S)-4′-fluoro-2′-(3-methoxy-3-methyl-1-butyn-1-yl)-7′-(5-pyrimidinyl)spiro[1,3-oxazole-4,9′-xanthen]-2-amine]: the IC50 on BACE1 [1] (read-out: HEK cell assay) was < 0.1 µM. Moreover, in assay [2] (30 mpk), the “percent reduction in CSF A-beta levels” value came out at 81% and the “percent reduction in brain A-beta levels” value was 63%. Further, the IC50 at BACE1 [3] (read-out: BACE1 FRET assay) is < 0.1 µM.

With `CC(C)(C#N)COc1ccc2c(c1)[C@@]1(COC(N)=N1)c1cc(-c3ccccc3)cnc1O2` [Example 817, 3-(((5S)-2′-amino-3-phenylspiro[chromeno[2,3-b]pyridine-5,4′-[1,3]oxazol]-7-yl)oxy)-2,2-dimethylpropanenitrile], at BACE1 [1] (setting [5]), the IC50 was < 0.1 µM. Besides, in assay [2] (30 mpk), the “percent reduction in CSF A-beta levels” value is 44% and the “percent reduction in brain A-beta levels” value stood at 25%. For the same compound, the IC50 at BACE1 [3] (setting [6]) was < 0.1 µM.

For the compound `NC1=N[C@@]2(CO1)c1cc(-c3cc(Cl)ccc3F)ccc1Oc1ncc(C3=CCOCC3)cc12` [Example 296, (S)-7-(5-chloro-2-fluorophenyl)-3-(3,6-dihydro-2H-pyran-4-yl)-5′H-spiro[chromeno[2,3-b]pyridine-5,4′-oxazol]-2′-amine], the IC50 on BACE1 [1] (setting [5]) is < 0.1 µM. In addition, in assay [2] (10 mpk), the “percent reduction in CSF A-beta levels” value is reported as 61% and the “percent reduction in brain A-beta levels” value is given as 40%. Also, on BACE1 [3] (setting [6]), the IC50 is < 0.1 µM.

With `CC(C)(C#N)COc1cc(F)c2c(c1)[C@]1(COC(N)=N1)c1cc(-c3cccnc3F)ccc1O2` [Example 287, (S)-3-(2-amino-5′-fluoro-2′-(2-fluoropyridin-3-yl)-5H-spiro[oxazole-4,9′-xanthene]-7′-yloxy)-2,2-dimethylpropanenitrile], at BACE1 [1] (setting [4]), the IC50 is < 0.1 µM. Further, in assay [2] (10 mpk), the “percent reduction in CSF A-beta levels” value is 48% and the “percent reduction in brain A-beta levels” value was found to be 32%. Also, the IC50 at BACE1 [3] (read-out: BACE1 FRET assay) is < 0.1 µM.

Consider `CC(C)(C)COc1cnc2c(c1)[C@]1(COC(N)=N1)c1cc(-c3cccnc3)ccc1O2` [Example 744, (5S)-3-(2,2-dimethylpropoxy)-7-(3-pyridinyl)spiro[chromeno[2,3-b]pyridine-5,4′-[1,3]oxazol]-2′-amine], for which, in assay [2] (10 mpk), the “percent reduction in CSF A-beta levels” value is 37% and the “percent reduction in brain A-beta levels” value is 26%.

In the case of `CC(C)Cn1cc(-c2ccc3c(c2)[C@]2(COC(N)=N2)c2cc(-c4cccnc4)ccc2O3)cn1` [compound 708], the IC50 at BACE1 [1] (read-out: HEK cell assay) is 0.1 to 1 µM; at BACE1 [3] (read-out: BACE1 FRET assay) it was < 0.1 µM.

Regarding `COCC(=O)Nc1ccc2c(c1)[C@@]1(COC(N)=N1)c1cc(OCC(C)(C)C)ccc1O2` [compound 375], the IC50 on BACE1 [1] (setting [7]) was 0.1 to 1 µM; at BACE1 [3] (setting [8]), < 0.1 µM.

In the case of `NC1=N[C@@]2(CO1)c1cc(-c3cccnc3F)ccc1Oc1cnc(-c3ccccc3)cc12` [compound 494], the IC50 was < 0.1 µM against BACE1 [1] (HEK cell assay (uM), HEK cells) and < 0.1 µM on BACE1 [3] (BACE1 FRET assay (uM)).

For the compound `NC1=N[C@]2(CO1)c1cc(C3=CCNCC3)ccc1Oc1ccc(-c3cncnc3)cc12` [compound 964], the IC50 at BACE1 [1] (read-out: HEK cell assay) and at BACE1 [3] (read-out: BACE1 FRET assay) was < 0.1 µM each time.

As for `COc1ccc2c(c1)C1(COC(N)=N1)c1cc(-c3cccc(OC)c3F)ccc1O2` (stereo not drawn) [Example 17, 2′-(2-fluoro-3-methoxyphenyl)-7′-methoxyspiro[1,3-oxazole-4,9′-xanthen]-2-amine], the IC50 at BACE1 [1] (setting [9]) and at BACE1 [3] (setting [10]) was 1 to 5 µM throughout.

`NC1=N[C@@]2(CO1)c1cc(-c3cccnc3F)ccc1Oc1ccc(-c3ccncc3)nc12` [compound 402]: the IC50 at BACE1 [1] (setting [7]) and on BACE1 [3] (setting [8]) was < 0.1 µM in each case.

`CC1(C)CC(=O)N(c2ccc3c(c2)[C@]2(COC(N)=N2)c2cc(-c4cccnc4)ccc2O3)C1` [compound 749]: the IC50 at BACE1 [1] (read-out: HEK cell assay) and on BACE1 [3] (read-out: BACE1 FRET assay) was < 0.1 µM throughout.

For the compound `CC1(COc2ccc3c(c2)[C@]2(COC(N)=N2)c2cc(-c4cncnc4)cnc2O3)COC1` [compound 166], the IC50 on BACE1 [1] (setting [11]) was 0.1 to 1 µM; on BACE1 [3] (setting [12]) it was < 0.1 µM.

For the compound `COc1ccc2c(c1)C1(COC(N)=N1)c1cc(-c3cccc(C)c3)ccc1O2` (stereo not drawn) [Example 20, 2′-methoxy-7′-(3-methylphenyl)spiro[1,3-oxazole-4,9′-xanthen]-2-amine], the IC50 on BACE1 [1] (setting [9]) is > 5 µM; on BACE1 [3] (setting [10]), 1 to 5 µM.

In the case of `NC1=NC2(CO1)c1cc(-c3cccnc3)ccc1Oc1ncc(-c3cccnc3)cc12` (stereo not drawn) [Example 113, 3,7-di-3-pyridinylspiro[chromeno[2,3-b]pyridine-5,4′-[1,3]oxazol]-2′-amine], the IC50 at BACE1 [1] (setting [11]) and at BACE1 [3] (setting [12]) was < 0.1 µM each time.

As to `N#Cc1ccccc1Oc1ccc2c(c1)[C@]1(COC(N)=N1)c1cc(Br)ccc1O2` [compound 997], the IC50 on BACE1 [1] (read-out: HEK cell assay) and on BACE1 [3] (read-out: BACE1 FRET assay) was > 5 µM each time.

On to `NC1=N[C@]2(CO1)c1cc(C(=O)N3CCCC3)ccc1Oc1ccc(-c3cccnc3)cc12` [compound 945], for which the IC50 on BACE1 [1] (read-out: HEK cell assay) and on BACE1 [3] (read-out: BACE1 FRET assay) was 0.1 to 1 µM throughout.

On to `CC(C)(C)C#Cc1ccc2c(c1)[C@]1(COC(N)=N1)c1cc(C#CC(C)(C)C)cnc1O2` [compound 898], for which the results for the IC50 on BACE1 [1] (setting [5]) and at BACE1 [3] (setting [6]) were > 5 µM and 0.1 to 1 µM, respectively.

Consider `NC1=N[C@@]2(CO1)c1cc(C#CC3CC3)ccc1Oc1ncc(N3CCOCC3)cc12` [compound 607], for which the IC50 on BACE1 [1] (setting [5]) and on BACE1 [3] (setting [6]) was < 0.1 µM in each case.

For the compound `CC(C)(C)CCc1ccc2c(c1)[C@]1(COC(N)=N1)c1cc(-c3ccc(F)nc3)ccc1O2` [153b], the IC50 at BACE1 [1] (setting [11]) is 0.1 to 1 µM; on BACE1 [3] (setting [12]) it was < 0.1 µM.

`CC(C)(C)C#Cc1ccc2c(c1)[C@]1(COC(N)=N1)c1cc(-c3cccnc3)ncc1O2` [compound 824]: the IC50 is 0.1 to 1 µM on BACE1 [1] (setting [5]) and < 0.1 µM at BACE1 [3] (setting [6]).
